We go through two compounds from patent publication US10252260B2, “System and method for deforming particles” (CytoVale Inc., priority 2016, dated 2019).

Assay [1] relates to white blood cells. Put plainly: Deformation of white blood cells in viscous co-flow, bullet metric as a function of treatment time. Type of assay: cell-based. The note with it: white blood cells treated with 5 nM; compared to untreated controls; FIG. 10. The method, then: FIG. 10 illustrates the bullet metric as a function of treatment time for white blood cells treated with 5 nM phorbol 12-myristate as compared with a untreated control in embodiments of a system and method for deforming particles;
(§1) The system 100 and/or method 200 function to enable the deformation of individual particles in a high-throughput and consistent manner, with the ability to simultaneously generate and analyze multiple data types characterizing the single particles. In one embodiment, the system 100 and/or method 200 further function to enable the generation of data that directly correlates mechanical properties of the particles with one or more fluorescence characterizations of the particles (e.g., fluorescent antibody stains, live/dead cell stains, nuclear stains, stains for apoptosis, fluorescent proteins, etc.) at the single-particle level. This can allow the generation of a direct quantitative comparison between biomolecular properties and mechanical properties. […]
(§2) Regarding Block S240, preferably, deformation metrics can be measured to characterize the deformation of the particles as the particle travels along the deformation region. […]

For assay [2], the system named is red blood cells. As to the kind of experiment: Deformation of red blood cells in viscous co-flow (primaquine biomodel), diameter versus bullet metric. The conditions noted are these: red blood cells of different stiffness induced by different concentrations of primaquine; FIGS. 11A-11C. It is filed as cell-based.
Excerpt: FIGS. 11A-11C illustrate bullet metric as a function of size for red blood cells treated with different concentrations of primaquine in variations of a system and method for deforming particles; and
as §1, §2

SMILES strings stand for the structures.

As for `CCCCCCCCCCCCCC(=O)O[C@@H]1[C@@H](C)[C@@]2(O)[C@@H](C=C(CO)C[C@]3(O)C(=O)C(C)=C[C@@H]23)[C@@H]2C(C)(C)[C@]12OC(C)=O`, in assay [1], the “change in a cell morphological metric (bullet metric) over treatment time” value is listed as “increased change in a cell morphological metric”.

As for `COc1cc(NC(C)CCCN)c2ncccc2c1` (centres unmarked) [primaquine], the “cell morphological metric (e.g. bullet metric)” value in assay [2] is “decrease in a cell morphological metric”.
